From US20260078120A1, “SUBSTITUTED PYRIDOPYRIMIDINONES” (MIRATI THERAPEUTICS, INC., priority 2022, published 2026)

Legend:
Assay type in all cases: cell-based
[1] = system: T47D (PI3Kα H1047R mutant) cells; assay: Inhibition of pAKT formation, alphaLISA SureFire Ultra AKT 1/2/3 (pS473), T47D cells; conditions: Homo sapiens, T47D
Procedure, shortened: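 AKT Ser473 phosphorylation was quantified by alphaLISA SureFire Ultra after roughly 1 h or 24 h compound exposure at 37 °C. Cells were T47D (12,000/well in HBSS), treated with a 10-point 1:4 series starting at 10.4 μM. Percent of control used alpelisib background and DMSO reference, and IC50 came from four-parameter logistic fitting.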

[2] = system: MKN1 (PI3Kα E545K mutant) cells; assay: Inhibition of pAKT formation, alphaLISA SureFire Ultra AKT 1/2/3 (pS473), MKN1 cells; conditions: Homo sapiens
Description: The ability of a compound of Formula (I) to inhibit the formation of pAKT was measured using alphaLISA Surefire Ultra AKT 1/2/3 (pS473) Assay Kit (#ALSU-PAKT-B50K) was obtained from Perkin Elmer (Waltham, MA).
To prepare assay plates for pAKT alphaLISA assays, cells were trypsinized, resuspended in fresh media, and viable cells were counted utilizing trypan blue exclusion. Prior to seeding, cells were washed with PBS and resuspended in HBSS (Gibco, #14025092). T47D (12,000/w), SKBR3(12,000/w), or MKN1(24,000/w) cells were seeded at 12 μl per well in a solid white flat bottom 384 cell culture plate (Perkin Elmer #6007680).
Immediately after seeding, cells were dosed using an Echo Liquid Handler (Beckman Coulter) with compounds at a […] starting concentration and serially diluted (1:4) for a total of 10 concentrations. […] Cells were incubated with the compounds (solubilized in DMSO) for approximately one hour or 24 hours at 37° C. After one hour (or 24 hours) of treatment, cells were lysed with 3 μl of the 5× lysis buffer (provided and incubated at room temperature for 15 min on a microtiter plate shaker). Once cells were sufficiently lysed, 7.5 μl of the acceptor bead mix (made using the manufacturers recommended dilutions) was added to each well and left on the microtiter plate shaker for 1 min prior to incubating plates at room temperature for one hour, in the absence of light. After one hour of incubation with the acceptor bead mix, 7.5 μl of the donor bead mix (made using the manufacturers recommended dilutions) was added to each well and left on the microtiter plate shaker for 1 min prior to incubating plates at room temperature overnight in the absence of light. Plates were then imaged the following day using a CLARIOstar microplate reader (BMG Labtech, Germany).
Percent of control values were calculated by subtracting the average signal from the positive control (alpelisib) treated wells from all treated wells (including DMSO control wells) and then divided by the average signal from the vehicle DMSO treated control wells. Percent of vehicle control values were plotted as log (inhibitor) vs. response-Variable slope (four parameters) for curve fitting and IC50 values were determined using XLfit.
Key: N.D. =not determined

[3] = system: SKBR3 (PI3Kα wild type) cells; assay: CellTiter-Glo 2.0 luminescent cell viability assay, 72 hours, SKBR3 cells; conditions: Homo sapiens, SK-BR-3, 72 h
Procedure, shortened: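 Viability measured via CTG luminescence following roughly 72 hours of compound exposure at 37° C. Dosing used a 10 um starting concentration diluted 1:4 over 10 points; percent-of-vehicle data fitted with a variable-slope four-parameter model for IC50.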

[4] = system: SKBR3 (PI3Kα wild type) cells; assay: Inhibition of pAKT formation, alphaLISA SureFire Ultra AKT 1/2/3 (pS473), SKBR3 cells; conditions: Homo sapiens, SK-BR-3; Inhibition of pAKT in SKBR3 (PI3Kα wild type) cells; read-out: SKBR3 (WT) pAKT IC50 (nM) (H1047R mutant) IC50
Procedure, shortened: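 Cells seeded in HBSS (SKBR3 12,000/well, MKN1 24,000/well) and dosed immediately, 10-point 1:4 series from […], for about 1 h or 24 h at 37 °C. pAKT S473 by alphaLISA after lysis; signal normalised to alpelisib and DMSO controls, IC50 by four-parameter fit.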

[5] = system: T47D (PI3Kα H1047R mutant) cells; assay: CellTiter-Glo 2.0 luminescent cell viability assay, 72 hours, T47D cells; conditions: Homo sapiens, T47D, 72 h
Procedure, shortened: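 Viability was measured by CellTiter-Glo 2.0 luminescence after approximately 72 h of compound exposure at 37° C. Plating was 1000 cells per well the day before dosing, with ten 1:4 dilutions from a 10 µM top concentration. Values as percent of vehicle were fitted by variable-slope log(inhibitor) regression to give IC50.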

[6] = system: MKN1 (PI3Kα E545K mutant) cells; assay: CellTiter-Glo 2.0 luminescent cell viability assay, 72 hours, MKN1 cells; conditions: Homo sapiens
Description: This Example illustrates that exemplary compounds of the present invention decrease the viability of cells.
The ability of a compound of Formula (I) to decrease the viability of cells was measured using CellTiter-Glo 2.0 (CTG) Luminescent Cell Viability Assay (#G9241) obtained from Promega (Madison, WI).
To prepare assay plates for viability assays, cells were trypsinized, resuspended in fresh media, and viable cells were counted utilizing trypan blue exclusion. T47D, SKBR3, or MKN1 cells were seeded at 1000 cells in 30 μl per well in a solid white flat bottom 384 cell culture plate (Perkin Elmer #6007680) and incubated at 37° C. overnight.
Assay day 1, cells were dosed using an Echo Liquid Handler (Beckman Coulter) with compounds at a 10 um starting concentration and serially diluted (1:4) for a total of 10 concentrations. Cells were incubated for approximately 72 hours with the compounds (solubilized in DMSO) at 37° C. After 72 hours of treatment, cell plates were equilibrated to room temperature before adding 15 μl of CTG to each well, plates were then covered in aluminum foil to protect from light, incubated at room temperature for 30 minutes on a microtiter plate shaker, and luminescence readings were collected using a CLARIOstar microplate reader (BMG Labtech, Germany). Percent of vehicle control values were plotted as log (inhibitor) vs. response-Variable slope (four parameters) for curve fitting and IC50 values were determined using XLfit.

[7] = T47D (PI3Kα H1047R mutant) cells, inhibition of pAKT (pS473) formation, approximately one hour or 24 hours treatment, read-out: T47D pAKT (H1047R mutant) IC50
[8] = MKN-1, MKN1 (PI3Kα E545K mutant) cells, inhibition of pAKT (pS473) formation, approximately one hour or 24 hours treatment, read-out: MKN1 (E545K) pAKT IC50
[9] = SKBR3 (PI3Kα wild type) cells, CellTiter-Glo, approximately 72 hours, read-out: SKBR3 (WT) Viability IC50
[10] = T47D (PI3Kα H1047R mutant) cells, CellTiter-Glo, approximately 72 hours, read-out: T47D (H1047R mutant) Viability IC50
[11] = MKN-1, MKN1 (PI3Kα E545K mutant) cells, CellTiter-Glo, approximately 72 hours, read-out: MKN1 (E545K) Viability IC50

SMILES | IC50 [1, 7] [nM] | IC50 [2, 8] [nM] | IC50 [3, 9] [nM] | IC50 [4] [nM] | IC50 [5, 10] [nM] | IC50 [6, 11] [nM] | IC50 ([1]; read-out: T47D pAKT (H1047R mutant) IC50 (nM)) [nM] | IC50 ([2]; MKN-1, read-out: MKN1 (E545K) pAKT IC50 (nM)) [nM] | IC50 ([3]; read-out: SKBR3 (WT) Viability IC50 (nM)) [nM] | IC50 ([5]; read-out: T47D (H1047R mutant) Viability IC50 (nM)) [nM] | IC50 ([6]; MKN-1, 72 h, read-out: MKN1 (E545K) Viability IC50 (nM)) [nM]
COc1ccc(NC(C)c2cc(C)cn3c(=O)cc(N4CCCCC4)nc23)c(C(=O)O)c1 (stereo not drawn) [Example 3-5, 5-methoxy-2-((1-(7-methyl-4-oxo-2-(piperidin-1-yl)-4H-pyrido[1,2-a]pyrimidin-9-yl)ethyl)amino)benzoic acid] | 1800 | > 10000 | > 10000 | > 10000 | > 10000 | > 10000 | – | – | – | – | –
Cc1cc(C(C)Nc2ccc(Cl)nc2C(=O)O)c2nc(N3CCCCC3)cc(=O)n2c1 (stereo not drawn) [Example 3-19, 6-chloro-3-((1-(7-methyl-4-oxo-2-(piperidin-1-yl)-4H-pyrido[1,2-a]pyrimidin-9-yl)ethyl)amino)picolinic acid] | 38.3 | 1190 | > 10000 | 2800 | 368 | > 10000 | – | – | – | – | –
CNC(=O)c1ccccc1NC(C)c1cc(C)cn2c(=O)cc(N3CCCCC3)nc12 (stereo not drawn) [Example 3-14, N-methyl-2-((1-(7-methyl-4-oxo-2-(piperidin-1-yl)-4H-pyrido[1,2-a]pyrimidin-9-yl)ethyl)amino)benzamide] | 4540 | 2910 | > 10000 | > 10000 | 1360 | > 10000 | – | – | – | – | –
CC(Nc1ccccc1C(=O)O)c1cccn2c(=O)cc(N3Cc4ccccc4C3)nc12 (stereo not drawn) [9-4, 2-((1-(2-(isoindolin-2-yl)-4-oxo-4H-pyrido[1,2-a]pyrimidin-9-yl)ethyl)amino)benzoic acid] | 25.9 | > 10000 | > 10000 | > 10000 | 9970 | > 10000 | – | – | – | – | –
CCc1c(N2CCCCC2)nc2c(C(C)Nc3ccccc3C(=O)O)cc(C)cn2c1=O (stereo not drawn) [Example 5-6, 2-((1-(3-ethyl-7-methyl-4-oxo-2-(piperidin-1-yl)-4H-pyrido[1,2-a]pyrimidin-9-yl)ethyl)amino)benzoic acid] | 28.1 | 6520 | > 10000 | 9050 | 3800 | > 10000 | – | – | – | – | –
Cc1cc(C(C)Nc2ccccc2C(=O)O)c2nc(-c3ccccc3)cc(=O)n2c1 (stereo not drawn) [Example 7-1, 2-((1-(7-methyl-4-oxo-2-phenyl-4H-pyrido[1,2-a]pyrimidin-9-yl)ethyl)amino)benzoic acid] | – | – | – | 6650 | – | – | 13.3 | 6420 | > 10000 | 3140 | > 10000
Cc1cc([C@H](C)Nc2ccccc2C(=O)O)c2nc(N3CCC(C)(C)CC3)cc(=O)n2c1 (single isomer, unassigned) [Example 5-4] | 13.5 | 1950 | > 10000 | 7070 | 980 | > 10000 | – | – | – | – | –

Now from value to molecule, other results behind:

IC50 [1, 7] [nM] | IC50 [2, 8] [nM] | IC50 [3, 9] [nM] | IC50 [4] [nM] | IC50 [5, 10] [nM] | IC50 [6, 11] [nM] | SMILES | IC50 ([1]; read-out: T47D pAKT (H1047R mutant) IC50 (nM)) [nM] | IC50 ([2]; MKN-1, read-out: MKN1 (E545K) pAKT IC50 (nM)) [nM] | IC50 ([3]; read-out: SKBR3 (WT) Viability IC50 (nM)) [nM] | IC50 ([5]; read-out: T47D (H1047R mutant) Viability IC50 (nM)) [nM] | IC50 ([6]; MKN-1, 72 h, read-out: MKN1 (E545K) Viability IC50 (nM)) [nM]
129 | > 10000 | 4770 | > 10000 | 4450 | 3780 | Cc1cc(C(C)Nc2ccccc2C(=O)O)c2nc(OCc3ccccc3)cc(=O)n2c1 (stereo not drawn) [Example 9-3, 2-((1-(2-(benzyloxy)-7-methyl-4-oxo-4H-pyrido[1,2-a]pyrimidin-9-yl)ethyl)amino)benzoic acid] | – | – | – | – | –
17 | > 10000 | > 10000 | > 10000 | 3780 | > 10000 | CCc1cc(C(C)Nc2ccccc2C(=O)O)c2nc(N3CCCCC3)cc(=O)n2c1 (stereo not drawn) [Example 5-8, 2-((1-(7-ethyl-4-oxo-2-(piperidin-1-yl)-4H-pyrido[1,2-a]pyrimidin-9-yl)ethyl)amino)benzoic acid] | – | – | – | – | –
11.7 | 271 | > 10000 | 4550 | 316 | > 10000 | Cc1cc([C@H](C)Nc2ccccc2C(=O)O)c2nc(N3Cc4ccccc4C3)c(C)c(=O)n2c1 (single isomer, unassigned) [Example 5-9-1] | – | – | – | – | –
